The text below walks through data of US7727980B2, “Tricyclic androgen receptor modulator compounds and methods” (priority 2001, dated 2010).

What is called Ki is a dissociation constant, usually derived from enzyme kinetics or from competition with a known ligand.

Read-outs that look alike come from different tables or passages of the source.

The target of assay [1] is T1, human AR (Homo sapiens, UniProt P10275).
T1 sequence (P10275 1-920): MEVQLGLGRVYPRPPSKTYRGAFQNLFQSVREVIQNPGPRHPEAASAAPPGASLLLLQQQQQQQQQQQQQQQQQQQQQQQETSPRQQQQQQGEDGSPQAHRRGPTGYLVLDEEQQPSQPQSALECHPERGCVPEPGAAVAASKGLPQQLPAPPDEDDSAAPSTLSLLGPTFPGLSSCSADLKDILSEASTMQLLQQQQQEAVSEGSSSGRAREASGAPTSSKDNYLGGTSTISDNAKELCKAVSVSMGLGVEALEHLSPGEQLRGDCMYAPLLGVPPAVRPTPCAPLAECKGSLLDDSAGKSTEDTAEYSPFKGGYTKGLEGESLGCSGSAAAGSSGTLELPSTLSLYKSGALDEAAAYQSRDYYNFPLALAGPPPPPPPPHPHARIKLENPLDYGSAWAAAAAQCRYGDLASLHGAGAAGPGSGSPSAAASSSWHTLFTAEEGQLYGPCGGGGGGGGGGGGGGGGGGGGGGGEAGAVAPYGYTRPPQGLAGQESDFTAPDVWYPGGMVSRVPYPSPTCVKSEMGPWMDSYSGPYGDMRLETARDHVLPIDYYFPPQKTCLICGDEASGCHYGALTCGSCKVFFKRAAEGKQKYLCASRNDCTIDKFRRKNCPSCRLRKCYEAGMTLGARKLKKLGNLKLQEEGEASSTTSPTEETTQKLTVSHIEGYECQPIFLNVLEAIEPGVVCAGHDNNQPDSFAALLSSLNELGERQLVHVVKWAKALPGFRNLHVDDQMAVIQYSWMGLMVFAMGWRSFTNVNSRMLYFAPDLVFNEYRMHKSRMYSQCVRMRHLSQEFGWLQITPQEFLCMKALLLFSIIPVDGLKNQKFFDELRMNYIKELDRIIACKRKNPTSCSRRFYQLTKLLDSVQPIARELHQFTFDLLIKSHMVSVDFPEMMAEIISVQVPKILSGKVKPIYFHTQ
Put plainly: AR whole cell competitive binding assay (3H-DHT), transfected COS-1 cells. Further details: expressed in transfected cells; transient transfection with pRShAR. The note with it: COS-1 cells, 1 nM 3H-DHT, Cheng-Prusoff from IC50; read-out: AR Binding Ki. The method, then: AR Binding: For the whole cell binding assay, COS-1 cells in 96-well microtiter plates containing DMEM-10% FBS were transfected as described above with the following plasmid DNA: pRShAR (2 ng/well), pRS-β-Gal (50 ng/well) and pGEM (48 ng/well). Six hours after transfection, media was removed, the cells were washed with PBS and fresh media was added. The next day, the media was changed to DMEM-serum free to remove any endogenous ligand that might be complexed with the receptor in the cells.
Three replicates were used for each sample. […] The remaining media was removed, the cells were washed three times with PBS to remove unbound ligand and cells were lysed with a Triton X-100-based buffer.
For the saturation analyses, the difference between the total binding and the nonspecific binding, normalized by the β-Gal rate, was defined as specific binding. […] The Ki values were determined by application of the Cheng-Prusoff equation to the IC50 values, where: […]
After correcting for non-specific binding, IC50 values were determined. […] The IC50 value was determined graphically from a log-logit plot of the data. The Ki values were determined by application of the Cheng-Prusoff equation to the IC50 values, the labeled ligand concentration and the Kd of the labeled ligand.

Assay [2] concerns the target T1, human AR. The assay is described as follows: Co-transfection assay, AR agonist activity, CV-1 cells. It counts as cell-based. Further details: expressed in transfected cells; host or cells: CV-1 cells (African green monkey kidney fibroblasts), transient transfection with pRShAR. The conditions noted are these: for AR Agonist CV-1 Cells Efficacy (%): percent maximal response relative to reference agonist DHT. From the text: (§1) The co-transfection assay provides a method for identifying functional agonists and partial agonists which mimic, or antagonists which inhibit, the effect of native hormones and quantifying their activity for responsive IR proteins. In this regard, the co-transfection assay mimics an in vivo system in the laboratory. Importantly, activity in the co-transfection assay correlates very well with known in vivo activity, such that the co-transfection assay functions as a qualitative and quantitative predictor of a tested compounds in vivo pharmacology. See, e.g., T. Berger et al. 41 J. Steroid Biochem. Molec.
(§2) In the co-transfection assay, a cloned cDNA for an IR (e.g., human PR, AR or GR) under the control of a constitutive promoter (e.g., the SV 40 promoter) is introduced by transfection (a procedure to induce cells to take up foreign genes) into a background cell substantially devoid of endogenous IRs. This introduced gene directs the recipient cells to make the IR protein of interest. A second gene is also introduced (co-transfected) into the same cells in conjunction with the IR gene. This second gene, comprising the cDNA for a reporter protein, such as firefly luciferase (LUC), controlled by an appropriate hormone responsive promoter containing a hormone response element (HRE). This reporter plasmid functions as a reporter for the transcription-modulating activity of the target IR. Thus, the reporter acts as a surrogate for the products (mRNA then protein) normally expressed by a gene under control of the target receptor and its native hormone.
(§3) The co-transfection assay can detect small molecule agonists or antagonists of target IRs. Exposing the transfected cells to an agonist ligand compound increases reporter activity in the transfected cells. This activity can be conveniently measured, e.g., by increasing luciferase production, which reflects compound-dependent, IR-mediated increases in reporter transcription. […] To detect antagonists, the co-transfection assay is carried out in the presence of a constant concentration of an agonist to the target IR (e.g., progesterone for PR) known to induce a defined reporter signal. Increasing concentrations of a suspected antagonist will decrease the reporter signal (e.g., luciferase production). The co-transfection assay is therefore useful to detect both agonists and antagonists of specific IRs. Furthermore, it determines not only whether a compound interacts with a particular IR, but whether this interaction mimics (agonizes) or blocks (antagonizes) the effects of the native regulatory molecules on target gene expression, as well as the specificity and strength of this interaction.
(§4) CV-1 cells (African green monkey kidney fibroblasts) were cultured in the presence of Dulbecco's Modified Eagle Medium (DMEM) supplemented with 10% charcoal resin-stripped fetal bovine serum then transferred to 96-well microtiter plates one day prior to transfection.
(§5) The reporter plasmid, MTV-LUC, contains the cDNA for firefly luciferase (LUC) under control of the mouse mammary tumor virus (MTV) long terminal repeat, a conditional promoter containing an androgen response element. See e.g., Berger et al. supra. In addition, pRS-β-Gal, coding for constitutive expression of E. coli β-galactosidase (β-Gal), was included as an internal control for evaluation of transfection efficiency and compound toxicity.
(§6) Six hours after transfection, media was removed and the cells were washed with phosphate-buffered saline (PBS). […] Three to four replicates were used for each sample. Transfections and subsequent procedures were performed on a Biomek 1000 automated laboratory work station.
(§7) After 40 hours, the cells were washed with PBS, lysed with a Triton X-100-based buffer and assayed for LUC and β-Gal activities using a luminometer or spectrophotometer, respectively. For each replicate, the normalized response (NR) was calculated as: LUC response/β-Gal rate • where β-Gal rate=β-Gal·1×10^−5/β-Gal incubation time.

Assay [3] addresses T1, human AR. Put plainly: Co-transfection assay, AR antagonist activity in presence of DHT, CV-1 cells. It counts as cell-based. The arrangement: expressed in transfected cells; host or cells: CV-1 cells (African green monkey kidney fibroblasts), transient transfection with pRShAR. The note with it: for AR Antagonist CV-1 Cells Efficacy (%): percent maximal inhibition, DHT at its EC50 concentration.
From the text: as §1, §2, §3, §4, §5, §6, §7

Setting [4] is: agonist potency or EC50, read-out: AR Agonist CV-1 Cells Potency.
The mark [5] stands for this setting: CV-1 cells, antagonist potency or IC50, DHT at its EC50 concentration, read-out: AR Antagonist CV-1 Cells Potency.
Where [6] appears, read: AR Agonist CV-1 Cells Potency (nM), agonist potency or EC50.
[7] abbreviates: AR Antagonist CV-1 Cells Potency (nM), CV-1 cells, antagonist potency or IC50, DHT at its EC50 concentration.

With “5,6-Dimethyl-7-(2,2,2-trifluoroethyl)-4-trifluoromethyl-7H-pyrrolo[3,2-f]quinolin-2(1H)-one [Compound 150]”, the Ki in assay [1] was determined as 4 nM. Besides, the EC50 in assay [2] (setting [4]) is 2.1 nM. Also, the “AR Agonist CV-1 Cells Efficacy (%)” value in assay [2] is 95%. Besides, the IC50 in assay [3] (setting [5]) is above 10000 nM. The “AR Antagonist CV-1 Cells Efficacy (%)” value in assay [3] (CV-1 cells) was “na (na = not active (i.e. efficacy of <20 and potency of >10,000))”.
Take “5-(2-Ethoxycarbonylethyl)-6-methyl-7-(2,2,2-trifluoroethyl)-4-trifluoromethyl-7H-pyrrolo[3,2-f]quinolin-2(1H)-one [Compound 162]”: the Ki in assay [1] was found to be 113 nM. In assay [2] (setting [4]), the EC50 worked out at 20 nM. Further, in assay [2], the “AR Agonist CV-1 Cells Efficacy (%)” value is listed as 71%. In addition, in assay [3] (setting [5]), the IC50 is above 10000 nM. The “AR Antagonist CV-1 Cells Efficacy (%)” value in assay [3] (CV-1 cells) was “na (na = not active (i.e. efficacy of <20 and potency of >10,000))”.
For the compound “5-(4-Fluorophenyl)-6-methyl-7-(2,2,2-trifluoroethyl)-4-trifluoromethyl-7H-pyrrolo[3,2-f]quinolin-2(1H)-one [Compound 161]”, in assay [1], the Ki amounted to 30 nM. For the same compound, in assay [2] (setting [4]), the EC50 stood at 238 nM. Moreover, the “AR Agonist CV-1 Cells Efficacy (%)” value in assay [2] came to 27%. In addition, in assay [3] (setting [5]), the IC50 was 10 nM. For the same compound, the “AR Antagonist CV-1 Cells Efficacy (%)” value in assay [3] (CV-1 cells) came out at 66%.
With “6,7-Dihydro-8,8,10-trimethyl-4-(trifluoromethyl)-8H-pyrano[3,2-g]quinolin-2(1H)-one [Compound 206]”, the EC50 in assay [2] (setting [4]) is above 10000 nM. In addition, the “AR Agonist CV-1 Cells Efficacy (%)” value in assay [2] was “na (na = not active (i.e. efficacy of <20 and potency of >10,000))”. Also, the IC50 in assay [3] (setting [5]) was found to be 175 nM. In addition, the “AR Antagonist CV-1 Cells Efficacy (%)” value in assay [3] (CV-1 cells) is listed as 90%.
With “6,7-Dihydro-8,8-dimethyl-4-(trifluoromethyl)-8H-pyrano[3,2-g]quinolin-2(1H)-one [Compound 202]”, in assay [2] (setting [4]), the EC50 is above 10000 nM. For the same compound, in assay [2], the “AR Agonist CV-1 Cells Efficacy (%)” value is “na (na = not active (i.e. efficacy of <20 and potency of >10,000))”. The IC50 in assay [3] (setting [5]) worked out at 146 nM. For the same compound, the “AR Antagonist CV-1 Cells Efficacy (%)” value in assay [3] (CV-1 cells) turned out to be 92%.
In the case of “6-Ethyl-5-methyl-7-(2,2,2-trifluoroethyl)-4-trifluoromethyl-7H-pyrrolo[3,2-f]quinolin-2(1H)-one [Compound 153]”, the EC50 in assay [2] (setting [4]) worked out at 7.6 nM. Besides, in assay [2], the “AR Agonist CV-1 Cells Efficacy (%)” value is on record as 76%. Besides, the IC50 in assay [3] (setting [5]) is above 10000 nM. Moreover, the “AR Antagonist CV-1 Cells Efficacy (%)” value in assay [3] (CV-1 cells) is “na (na = not active (i.e. efficacy of <20 and potency of >10,000))”.
The compound `CC(C)C1c2c(ccc3[nH]c(=O)cc(C(F)(F)F)c23)N(CC(F)(F)F)C1C` (racemic) [Compound 144, (±)-5,6-cis-Dihydro-5-isopropyl-6-methyl-7-(2,2,2-trifluoroethyl)-4-trifluoromethyl-7H-pyrrolo[3,2-f]quinolin-2(1H)-one] returned an EC50 in assay [2] (setting [6]) above 10000 nM. Besides, in assay [2], the “AR Agonist CV-1 Cells Efficacy (%)” value is “na (na = not active (i.e. efficacy of <20 and potency of >10,000))”. Also, in assay [3] (setting [7]), the IC50 turned out to be 23 nM. Also, the “AR Antagonist CV-1 Cells Efficacy (%)” value in assay [3] (CV-1 cells) was 53%.
In assay [2] (setting [6]), `CCC1CCOc2cc3c(cc21)c(C(F)(F)F)cc(=O)n3C` (racemic) [Compound 220, (±)-6,7-Dihydro-6-ethyl-4-trifluoromethyl-1-methyl-8H-pyrano[3,2-g]quinolin-2(1H)-one] had an EC50 above 10000 nM. For the same compound, the “AR Agonist CV-1 Cells Efficacy (%)” value in assay [2] was “na (na = not active (i.e. efficacy of <20 and potency of >10,000))”. Further, the IC50 in assay [3] (setting [7]) came out at 23 nM. Besides, in assay [3] (CV-1 cells), the “AR Antagonist CV-1 Cells Efficacy (%)” value is 67%.
In assay [2] (setting [6]), `CCc1c(C)c2cc3[nH]c(=O)cc(C(F)(F)F)c3cc2n1CC(F)(F)F` [Compound 163, 7-Ethyl-8-methyl-6-(2,2,2-trifluoroethyl)-4-trifluoromethyl-6H-pyrrolo[2,3-g]quinolin-2(1H)-one] had an EC50 above 10000 nM. The “AR Agonist CV-1 Cells Efficacy (%)” value in assay [2] is “na (na = not active (i.e. efficacy of <20 and potency of >10,000))”. Also, the IC50 in assay [3] (setting [7]) is 8.2 nM. Further, the “AR Antagonist CV-1 Cells Efficacy (%)” value in assay [3] (CV-1 cells) was 37%.
As to `CC1CC(C)(C)N(CC(F)(F)F)c2ccc3[nH]c(=O)ccc3c21` (stereo not shown) [Compound 182, 8-(2,2,2-Trifluoroethyl)-5,6,7,8-tetrahydro-5,7,7-trimethylpyrido[3,2-f]quinolin-2(1H)-one], in assay [2], the “AR Agonist CV-1 Cells Efficacy (%)” value was “na (na = not active (i.e. efficacy of <20 and potency of >10,000))”. Further, the IC50 in assay [3] was found to be 13 nM. The “AR Antagonist CV-1 Cells Efficacy (%)” value in assay [3] (CV-1 cells) is reported as 81%.
Regarding “(−)-6,7-Dihydro-6-ethyl-4-trifluoromethyl-8H-pyrano[3,2-g]quinolin-2(1H)-one [Compound 217]”, the EC50 in assay [2] (setting [4]) was above 10000 nM. In assay [2], the “AR Agonist CV-1 Cells Efficacy (%)” value is “na (na = not active (i.e. efficacy of <20 and potency of >10,000))”. In addition, the IC50 in assay [3] (setting [5]) was found to be 64 nM. Also, in assay [3] (CV-1 cells), the “AR Antagonist CV-1 Cells Efficacy (%)” value amounted to 85%.
